Source: the NIST ThermoML archive (doi:10.1016/j.fluid.2010.03.010)
± gives the expanded uncertainty stated by the source.

Assay: molar heat capacity at constant pressure
Settings: 101.33 kPa, Liquid, Differential Scanning Calorimetry

molar heat capacity at constant pressure (308.16 K) [J/K/mol]	molar heat capacity at constant pressure (313.16 K) [J/K/mol]	molar heat capacity at constant pressure (318.16 K) [J/K/mol]	molar heat capacity at constant pressure (323.16 K) [J/K/mol]	molar heat capacity at constant pressure (328.22 K) [J/K/mol]	molar heat capacity at constant pressure (333.22 K) [J/K/mol]	molar heat capacity at constant pressure (338.19 K) [J/K/mol]	molar heat capacity at constant pressure (343.18 K) [J/K/mol]	molar heat capacity at constant pressure (348.25 K) [J/K/mol]	molar heat capacity at constant pressure (353.18 K) [J/K/mol]	molar heat capacity at constant pressure (358.25 K) [J/K/mol]	molar heat capacity at constant pressure (363.18 K) [J/K/mol]	Structure (SMILES)
393.42 ± 12	396.97 ± 12	399.33 ± 12	402.06 ± 12	405.24 ± 12	406.42 ± 12	408.78 ± 12	411.14 ± 12	414.69 ± 12	415.87 ± 12	418.23 ± 13	420.6 ± 13	CCOS(=O)(=O)[O-].CCn1cc[n+](C)c1 [1-ethyl-3-methylimidazolium ethyl sulfate]
381.78 ± 11	384.86 ± 12	382.81 ± 11	386.92 ± 12	386.92 ± 12	388.97 ± 12	391.02 ± 12	392.05 ± 12	394.1 ± 12	395.13 ± 12	396.15 ± 12	399.23 ± 12	CCCCn1cc[n+](C)c1.N#CN=C=[N-] [1-butyl-3-methylimidazolium dicyanamide]

Structure (SMILES)	molar heat capacity at constant pressure (308.16 K) [J/K/mol]	molar heat capacity at constant pressure (313.16 K) [J/K/mol]	molar heat capacity at constant pressure (318.16 K) [J/K/mol]	molar heat capacity at constant pressure (323.16 K) [J/K/mol]	molar heat capacity at constant pressure (328.22 K) [J/K/mol]	molar heat capacity at constant pressure (333.22 K) [J/K/mol]	molar heat capacity at constant pressure (338.19 K) [J/K/mol]	molar heat capacity at constant pressure (343.18 K) [J/K/mol]	molar heat capacity at constant pressure (348.25 K) [J/K/mol]	molar heat capacity at constant pressure (353.18 K) [J/K/mol]	molar heat capacity at constant pressure (358.25 K) [J/K/mol]	molar heat capacity at constant pressure (363.18 K) [J/K/mol]
CCCC[n+]1ccn(C)c1.O=S(=O)([N-]S(=O)(=O)C(F)(F)F)C(F)(F)F	573.13 ± 17	575.92 ± 17	577.32 ± 17	581.51 ± 17	584.31 ± 18	588.5 ± 18	588.5 ± 18	592.7 ± 18	595.49 ± 18	596.89 ± 18	599.68 ± 18	602.48 ± 18
